PubChem BioAssay (NCI)
Several values for one entry are separate records, joined by “and”; a condition that tells them apart may be missing. Equal values may be shown once.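 All cell lines were grown in 96-well plates and treated with compound for 48 hours. The concentration for 50% growth inhibition is given as GI50. TGI denotes the concentration required for complete inhibition of growth.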

Assays:
Test in all cases: NCI tumour cell line growth inhibition, 48 h
SF-268 CNS = test system: SF-268 CNS
A549 NSCLC = test system: A549 NSCLC
MALME-3M melanoma = test system: MALME-3M melanoma
SF-295 CNS = test system: SF-295 CNS
SW-620 colon = test system: SW-620 colon
TK-10 renal = test system: TK-10 renal
LOX IMVI melanoma = test system: LOX IMVI melanoma
HOP-62 NSCLC = test system: HOP-62 NSCLC
OVCAR-8 ovarian = test system: OVCAR-8 ovarian
CAKI-1 renal = test system: CAKI-1 renal

Row | Compound | GI50 (SF-268 CNS) | TGI (SF-268 CNS) | GI50 (A549 NSCLC) | TGI (A549 NSCLC) | GI50 (MALME-3M melanoma) [µM] | TGI (MALME-3M melanoma) | GI50 (SF-295 CNS) | TGI (SF-295 CNS) | GI50 (SW-620 colon) | TGI (SW-620 colon) | GI50 (TK-10 renal) [µM] | TGI (TK-10 renal) | GI50 (LOX IMVI melanoma) | TGI (LOX IMVI melanoma) | GI50 (HOP-62 NSCLC) [µM] | TGI (HOP-62 NSCLC) | GI50 (OVCAR-8 ovarian) | TGI (OVCAR-8 ovarian) | GI50 (CAKI-1 renal) | TGI (CAKI-1 renal)
1 | COc1ccc(Nc2ncccc2C(=O)NCc2cn(Cc3cccc(Oc4ccccc4)c3)nn2)c(OC)c1 | 3.34 µM | > 100 µM | 3.7 µM | > 100 µM | 6.21 | > 100 µM | 0.552 µM | 22.2 µM | 2.35 µM | > 100 µM | 13.8 | > 100 µM | 2.54 µM | > 100 µM | 5.58 | > 100 µM | 3.81 µM | > 100 µM | 1.26 µM | > 100 µM
2 | Oc1[nH]c2ccccc2c1/C=c1/ccc2c(c1)N=C(c1cc(F)cc(F)c1)N=2 | 9.44 µM | 25.6 µM | 4.65 µM | 23.7 µM | 10.1 | 28.3 µM | 2.84 µM | 10.9 µM | 3.55 µM | 15.8 µM | 14 | 27.7 µM | 3.94 µM | 18.9 µM | 10.4 | 25.2 µM | 4.56 µM | 33.3 µM | 2.47 µM | 15.1 µM
3 | CN(CC1NCCCC1O)C12CC3CC(CC(C3)C1)C2 (stereo not drawn) |  | > 100 µM |  | > 100 µM |  | > 100 µM |  | > 100 µM |  | > 100 µM |  | > 100 µM |  | > 100 µM |  | > 100 µM |  | > 100 µM |  | > 100 µM
4 | O=c1sc(-c2nc3ccccc3[nH]2)c(/N=C/c2ccccc2)n1-c1ccccc1 |  | > 100 µM |  | > 100 µM |  | > 100 µM |  | > 100 µM |  | > 100 µM |  | > 100 µM |  | > 100 µM |  | 73.7 µM |  | > 100 µM |  | > 100 µM
5 | Cn1cc(-c2ccc3nnc(C(F)(F)c4ccc5ncccc5c4)n3n2)cn1 | 50.7 µM | > 100 µM | 60.2 µM | > 100 µM | 64.1 | > 100 µM | 3.82 µM | > 100 µM | > 95.8 µM | > 100 µM | 32.1 | > 100 µM | 55.5 µM | > 100 µM | 56.4 | > 100 µM | 66.1 µM | > 100 µM | 31.4 µM | > 100 µM
6 | CC(=O)Nc1ccc(Cc2ccc3[nH]c(=O)cc(C)c3c2)cc1 |  | > 100 µM |  | > 100 µM |  | > 100 µM |  | > 100 µM |  | > 100 µM |  | > 100 µM |  | > 100 µM |  | > 100 µM |  | > 100 µM |  | > 100 µM
7 | COC1C(C)OC(OC2CC(C)(O)Cc3cc4c(c(O)c32)C(=O)c2c(O)cc3c(c2C4=O)OC2OC3(C)C(O)C(N(C)C)C2O)C(OC)C1(C)OC (stereo not drawn) | 0.0512 µM and 0.0161 µM | 1.81 µM and 1.03 µM | 0.0835 µM and 0.0476 µM |  | 0.0178 | 0.383 µM and 0.0944 µM | 0.0538 µM and 0.0356 µM |  | 0.038 µM and 0.024 µM | 2.84 µM and 2.41 µM | 0.109 | 0.781 µM | 0.0226 µM and 0.0661 µM |  |  | 0.921 µM and 0.347 µM | 0.0416 µM and 0.0176 µM | 2.79 µM and 1.37 µM | 0.0476 µM and 0.0219 µM | 0.422 µM and 0.452 µM
8 | COc1cc2oc(-c3ccc(O)cc3)cc(=O)c2c(OC)c1O |  | > 100 µM |  | > 100 µM |  | > 100 µM |  | > 100 µM |  | > 100 µM |  | > 100 µM |  | > 100 µM |  | > 100 µM |  | > 100 µM |  | > 100 µM
9 | COC(=O)[C@H](C)[C@@H]1CC[C@](C)(CCC2=C(C)CCCC2(C)C)OO1 |  | > 25 µM |  | > 25 µM |  | > 25 µM |  | > 25 µM |  | > 25 µM |  | > 25 µM |  | > 25 µM |  | > 25 µM |  | > 25 µM |  | > 25 µM
10 | COC(=O)C1=Cc2cn(S(=O)(=O)c3ccc(C)cc3)c3cccc(c23)C(C=C(C)C)N1C(C)=O (stereo not drawn) |  | > 100 µM |  | > 100 µM |  | 64.6 µM |  | > 100 µM |  | > 100 µM |  | > 100 µM |  | > 100 µM |  | > 100 µM |  | > 100 µM |  | 79.6 µM
11 | O=C(NC(Cc1ccccc1)C(=O)CCl)OCc1ccccc1 (stereo not drawn) | 4.36 µM | 16.3 µM and 26.3 µM | 13.9 µM | 33.9 µM and 36.2 µM | 1.93 | 6.7 µM and 23.8 µM |  | 33 µM and 29.2 µM | 1.91 µM | 5.23 µM and 15.8 µM | 2.58 | 9.43 µM and 28.4 µM | 1.3 µM | 3.12 µM and 7.49 µM |  | 30.6 µM and 29.4 µM |  | 15 µM and 17.6 µM | 7.52 µM | 21.2 µM and 17.3 µM
12 | CNC(=O)c1cc(Oc2ccc3nc(NC(=O)Nc4cc(C(F)(F)F)cc(C(F)(F)F)c4)sc3c2)ccn1 | 1.27 µM | 2.86 µM | 1.3 µM | 2.67 µM | 0.908 | 2.49 µM | 1.08 µM | 2.41 µM | 1.56 µM | 3.29 µM | 1.67 | 3.35 µM | 1.21 µM | 2.53 µM | 1.15 | 2.8 µM | 1.33 µM | 2.69 µM | 1.15 µM | 2.69 µM
